Paper PMC9030254, “Target Hopping from Protein Kinases to PXR: Identification of Small-Molecule Protein Kinase Inhibitors as Selective Modulators of Pregnane X Receptor from TüKIC Library” (Cells, 2022)

Tests used:
Test in all cases: Kinase profiling
Assay type in all cases: biochemical
AMPKalpha1 = biological target: T1, AMPKalpha1 (Homo sapiens, UniProt Q13131)
T1 construct: purchased ProQinase (Freiburg, Germany)
Method: (§1) The analysis was performed by ProQinase (Freiburg, Germany).

AuroraA = biological target: T2, AuroraA (Homo sapiens, UniProt O14965)
T2 construct: purchased ProQinase (Freiburg, Germany)
T2 sequence (O14965 1-403): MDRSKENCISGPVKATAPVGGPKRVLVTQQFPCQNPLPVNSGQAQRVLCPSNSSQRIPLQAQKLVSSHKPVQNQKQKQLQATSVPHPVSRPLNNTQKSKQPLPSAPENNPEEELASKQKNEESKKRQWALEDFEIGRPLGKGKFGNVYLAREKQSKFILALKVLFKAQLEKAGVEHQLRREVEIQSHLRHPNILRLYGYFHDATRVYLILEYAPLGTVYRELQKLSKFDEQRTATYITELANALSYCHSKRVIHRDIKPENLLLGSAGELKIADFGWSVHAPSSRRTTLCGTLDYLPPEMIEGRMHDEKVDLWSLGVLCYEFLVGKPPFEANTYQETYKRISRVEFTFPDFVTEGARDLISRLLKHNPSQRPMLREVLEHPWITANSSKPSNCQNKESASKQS
Method: as §1

DYRK2 = biological target: T3, DYRK2 (Homo sapiens, UniProt Q92630)
T3 construct: purchased ProQinase (Freiburg, Germany)
T3 sequence (Q92630 1-601): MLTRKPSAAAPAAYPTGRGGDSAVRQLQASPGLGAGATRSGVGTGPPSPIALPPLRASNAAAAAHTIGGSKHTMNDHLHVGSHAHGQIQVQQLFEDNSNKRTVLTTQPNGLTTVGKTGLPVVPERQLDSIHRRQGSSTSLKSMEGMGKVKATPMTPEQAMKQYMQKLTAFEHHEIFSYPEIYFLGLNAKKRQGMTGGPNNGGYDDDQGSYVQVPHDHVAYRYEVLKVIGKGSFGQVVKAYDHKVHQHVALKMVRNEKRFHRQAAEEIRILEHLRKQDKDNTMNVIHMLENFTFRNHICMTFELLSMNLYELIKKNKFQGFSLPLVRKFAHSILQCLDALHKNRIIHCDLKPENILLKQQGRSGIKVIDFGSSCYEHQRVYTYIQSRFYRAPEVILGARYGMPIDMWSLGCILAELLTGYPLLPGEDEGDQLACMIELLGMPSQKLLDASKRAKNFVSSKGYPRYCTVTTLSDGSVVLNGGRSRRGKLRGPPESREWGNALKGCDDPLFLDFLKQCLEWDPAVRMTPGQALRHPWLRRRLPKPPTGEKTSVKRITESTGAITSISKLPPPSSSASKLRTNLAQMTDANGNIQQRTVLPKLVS
Method: as §1

MAP3K9 = biological target: T4, MAP3K9 (Homo sapiens, UniProt P80192)
T4 construct: purchased ProQinase (Freiburg, Germany)
T4 sequence (P80192 whole entry): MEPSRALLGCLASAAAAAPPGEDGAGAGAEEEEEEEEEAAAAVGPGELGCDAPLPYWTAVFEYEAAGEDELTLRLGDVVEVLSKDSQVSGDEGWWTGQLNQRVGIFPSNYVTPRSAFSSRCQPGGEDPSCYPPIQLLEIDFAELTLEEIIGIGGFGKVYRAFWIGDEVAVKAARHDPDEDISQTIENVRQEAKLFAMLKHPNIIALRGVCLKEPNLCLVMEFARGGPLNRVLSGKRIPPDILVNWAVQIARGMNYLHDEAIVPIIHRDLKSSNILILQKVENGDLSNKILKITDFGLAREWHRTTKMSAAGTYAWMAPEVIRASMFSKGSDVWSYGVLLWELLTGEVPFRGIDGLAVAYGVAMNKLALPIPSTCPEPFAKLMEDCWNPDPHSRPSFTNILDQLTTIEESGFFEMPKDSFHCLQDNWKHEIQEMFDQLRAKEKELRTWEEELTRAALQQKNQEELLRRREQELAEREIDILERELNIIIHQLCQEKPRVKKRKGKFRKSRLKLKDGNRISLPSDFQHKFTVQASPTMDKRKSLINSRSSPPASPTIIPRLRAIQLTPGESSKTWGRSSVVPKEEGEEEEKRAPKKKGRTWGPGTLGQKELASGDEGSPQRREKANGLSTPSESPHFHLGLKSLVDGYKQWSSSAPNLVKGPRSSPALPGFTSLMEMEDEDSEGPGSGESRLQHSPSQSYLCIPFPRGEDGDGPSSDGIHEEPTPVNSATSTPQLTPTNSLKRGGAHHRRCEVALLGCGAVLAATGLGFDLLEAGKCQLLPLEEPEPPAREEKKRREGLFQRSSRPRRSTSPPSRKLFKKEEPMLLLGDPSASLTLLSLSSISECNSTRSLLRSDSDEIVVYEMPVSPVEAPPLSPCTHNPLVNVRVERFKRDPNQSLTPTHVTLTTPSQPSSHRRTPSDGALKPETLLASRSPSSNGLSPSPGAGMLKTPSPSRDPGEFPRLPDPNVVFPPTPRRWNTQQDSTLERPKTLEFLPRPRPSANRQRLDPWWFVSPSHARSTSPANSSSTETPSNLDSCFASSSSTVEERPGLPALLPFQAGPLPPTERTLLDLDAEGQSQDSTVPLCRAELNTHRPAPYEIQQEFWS
Method: as §1

TYRO3 = biological target: T5, TYRO3 (Homo sapiens, UniProt Q06418)
T5 construct: purchased ProQinase (Freiburg, Germany)
T5 sequence (Q06418 41-890): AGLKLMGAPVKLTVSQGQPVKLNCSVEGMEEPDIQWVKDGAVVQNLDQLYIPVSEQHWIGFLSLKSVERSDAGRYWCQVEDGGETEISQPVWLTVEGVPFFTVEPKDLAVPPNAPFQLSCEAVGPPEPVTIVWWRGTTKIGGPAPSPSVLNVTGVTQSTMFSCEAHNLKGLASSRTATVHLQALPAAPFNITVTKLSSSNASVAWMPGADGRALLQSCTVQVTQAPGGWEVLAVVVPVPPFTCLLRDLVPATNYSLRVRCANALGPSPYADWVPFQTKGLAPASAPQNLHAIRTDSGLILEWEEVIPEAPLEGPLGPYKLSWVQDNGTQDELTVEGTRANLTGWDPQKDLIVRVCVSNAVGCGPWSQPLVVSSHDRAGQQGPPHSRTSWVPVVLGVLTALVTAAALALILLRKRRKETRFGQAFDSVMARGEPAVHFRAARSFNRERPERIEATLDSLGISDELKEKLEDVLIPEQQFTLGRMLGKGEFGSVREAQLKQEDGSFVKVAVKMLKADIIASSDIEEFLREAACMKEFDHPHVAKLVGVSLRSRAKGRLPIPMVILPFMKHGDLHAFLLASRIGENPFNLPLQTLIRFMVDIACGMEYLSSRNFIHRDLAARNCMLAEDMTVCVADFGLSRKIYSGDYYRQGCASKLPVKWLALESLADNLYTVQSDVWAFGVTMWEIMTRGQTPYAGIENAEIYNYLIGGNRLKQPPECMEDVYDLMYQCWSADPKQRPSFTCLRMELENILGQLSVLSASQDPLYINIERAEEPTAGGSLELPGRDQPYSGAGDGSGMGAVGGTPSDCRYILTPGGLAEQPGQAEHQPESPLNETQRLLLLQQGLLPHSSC
Method: as §1

VRK1 = biological target: T6, VRK1 (Homo sapiens, UniProt Q99986)
T6 construct: purchased ProQinase (Freiburg, Germany)
T6 sequence (Q99986 1-396): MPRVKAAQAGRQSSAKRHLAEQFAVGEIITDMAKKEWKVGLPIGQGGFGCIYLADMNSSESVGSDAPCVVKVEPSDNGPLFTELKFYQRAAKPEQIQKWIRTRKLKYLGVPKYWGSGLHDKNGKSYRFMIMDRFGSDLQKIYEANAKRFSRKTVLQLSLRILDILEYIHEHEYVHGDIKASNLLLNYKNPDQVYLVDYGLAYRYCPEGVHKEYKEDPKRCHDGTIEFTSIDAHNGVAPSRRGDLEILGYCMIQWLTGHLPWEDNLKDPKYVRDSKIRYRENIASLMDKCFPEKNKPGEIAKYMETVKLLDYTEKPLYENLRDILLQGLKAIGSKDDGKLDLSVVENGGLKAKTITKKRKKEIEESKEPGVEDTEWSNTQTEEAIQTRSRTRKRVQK
Method: as §1

WNK3 = biological target: T7, WNK3 (Homo sapiens, UniProt Q9BYP7)
T7 construct: purchased ProQinase (Freiburg, Germany)
T7 sequence (Q9BYP7 whole entry): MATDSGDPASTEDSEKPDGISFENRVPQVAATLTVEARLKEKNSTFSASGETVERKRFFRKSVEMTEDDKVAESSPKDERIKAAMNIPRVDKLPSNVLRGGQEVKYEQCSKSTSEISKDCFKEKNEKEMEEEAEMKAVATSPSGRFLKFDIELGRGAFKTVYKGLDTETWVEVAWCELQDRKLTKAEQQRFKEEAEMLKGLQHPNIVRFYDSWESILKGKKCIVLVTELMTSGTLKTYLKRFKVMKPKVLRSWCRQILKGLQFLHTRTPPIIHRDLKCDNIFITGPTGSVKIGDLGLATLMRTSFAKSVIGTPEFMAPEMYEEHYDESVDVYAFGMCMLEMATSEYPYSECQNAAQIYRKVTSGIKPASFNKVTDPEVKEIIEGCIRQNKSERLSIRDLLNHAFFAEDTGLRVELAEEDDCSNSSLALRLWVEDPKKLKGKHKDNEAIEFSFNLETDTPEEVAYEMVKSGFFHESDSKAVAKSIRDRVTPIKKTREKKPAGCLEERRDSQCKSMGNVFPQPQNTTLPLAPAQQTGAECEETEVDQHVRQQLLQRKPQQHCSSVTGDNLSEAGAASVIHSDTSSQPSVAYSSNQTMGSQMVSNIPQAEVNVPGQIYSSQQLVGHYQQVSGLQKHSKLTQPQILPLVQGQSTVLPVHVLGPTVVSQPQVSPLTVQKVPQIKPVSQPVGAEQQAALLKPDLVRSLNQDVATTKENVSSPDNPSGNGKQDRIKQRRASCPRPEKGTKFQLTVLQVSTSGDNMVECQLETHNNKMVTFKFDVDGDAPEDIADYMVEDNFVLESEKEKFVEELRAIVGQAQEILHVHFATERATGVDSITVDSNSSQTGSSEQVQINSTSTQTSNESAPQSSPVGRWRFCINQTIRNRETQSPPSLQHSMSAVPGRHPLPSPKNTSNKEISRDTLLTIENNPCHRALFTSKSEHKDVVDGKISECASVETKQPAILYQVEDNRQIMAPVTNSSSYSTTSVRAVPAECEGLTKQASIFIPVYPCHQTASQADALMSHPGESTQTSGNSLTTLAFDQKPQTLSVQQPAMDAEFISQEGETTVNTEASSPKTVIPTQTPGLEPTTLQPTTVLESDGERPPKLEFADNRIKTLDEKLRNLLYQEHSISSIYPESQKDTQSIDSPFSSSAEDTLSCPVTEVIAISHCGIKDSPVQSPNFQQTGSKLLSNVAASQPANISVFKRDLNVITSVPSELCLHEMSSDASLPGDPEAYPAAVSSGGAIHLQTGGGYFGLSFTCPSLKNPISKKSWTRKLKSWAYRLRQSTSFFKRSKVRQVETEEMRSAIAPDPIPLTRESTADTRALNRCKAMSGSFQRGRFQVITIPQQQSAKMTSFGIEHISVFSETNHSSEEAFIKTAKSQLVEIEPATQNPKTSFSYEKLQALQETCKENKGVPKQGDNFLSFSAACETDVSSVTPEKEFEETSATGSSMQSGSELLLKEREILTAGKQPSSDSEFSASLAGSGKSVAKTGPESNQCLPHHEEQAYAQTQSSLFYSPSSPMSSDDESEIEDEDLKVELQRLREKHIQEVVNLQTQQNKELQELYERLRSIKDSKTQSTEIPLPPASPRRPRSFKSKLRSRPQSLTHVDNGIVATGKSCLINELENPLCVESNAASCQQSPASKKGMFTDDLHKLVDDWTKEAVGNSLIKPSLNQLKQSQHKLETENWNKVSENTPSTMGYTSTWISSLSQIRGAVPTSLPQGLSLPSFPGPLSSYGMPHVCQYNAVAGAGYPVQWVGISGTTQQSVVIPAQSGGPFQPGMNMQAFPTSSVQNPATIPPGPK
Method: as §1

p38alpha = biological target: T8, p38alpha (Homo sapiens, UniProt Q16539)
T8 construct: purchased ProQinase (Freiburg, Germany)
T8 sequence (Q16539 whole entry): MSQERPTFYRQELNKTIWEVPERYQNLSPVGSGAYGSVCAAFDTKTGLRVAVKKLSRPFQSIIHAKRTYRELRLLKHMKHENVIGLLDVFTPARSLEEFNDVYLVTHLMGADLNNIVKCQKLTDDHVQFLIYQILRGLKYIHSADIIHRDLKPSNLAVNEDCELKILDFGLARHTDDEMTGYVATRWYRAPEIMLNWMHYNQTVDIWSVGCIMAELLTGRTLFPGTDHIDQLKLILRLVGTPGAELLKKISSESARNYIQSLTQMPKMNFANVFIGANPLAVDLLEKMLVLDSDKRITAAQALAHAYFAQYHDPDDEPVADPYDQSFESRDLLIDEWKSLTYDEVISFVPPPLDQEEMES
Method: as §1

T1 sequence (Q13131 10-559 limits assumed): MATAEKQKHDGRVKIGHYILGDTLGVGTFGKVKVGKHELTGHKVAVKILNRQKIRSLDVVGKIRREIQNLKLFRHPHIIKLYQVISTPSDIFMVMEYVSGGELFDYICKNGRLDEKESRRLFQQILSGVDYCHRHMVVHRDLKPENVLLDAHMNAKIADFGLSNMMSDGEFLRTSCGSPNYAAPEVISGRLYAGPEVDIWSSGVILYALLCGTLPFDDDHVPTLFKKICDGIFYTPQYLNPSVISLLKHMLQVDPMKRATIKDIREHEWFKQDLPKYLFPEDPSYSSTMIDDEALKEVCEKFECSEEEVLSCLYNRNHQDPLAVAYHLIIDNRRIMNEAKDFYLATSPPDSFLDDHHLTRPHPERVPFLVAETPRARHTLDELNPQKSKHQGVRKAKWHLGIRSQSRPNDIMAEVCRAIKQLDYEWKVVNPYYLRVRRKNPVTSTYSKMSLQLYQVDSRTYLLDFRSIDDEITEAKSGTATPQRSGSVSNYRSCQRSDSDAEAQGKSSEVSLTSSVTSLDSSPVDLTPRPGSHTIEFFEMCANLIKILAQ

| Structure (SMILES) | Residual activity (AMPKalpha1; 1.0E-05 M) | Residual activity (AMPKalpha1; 1.0E-06 M) | Residual activity (AuroraA; 1.0E-05 M) | Residual activity (AuroraA; 1.0E-06 M) | Residual activity (DYRK2; 1.0E-05 M) | Residual activity (DYRK2; 1.0E-06 M) | Residual activity (MAP3K9; 1.0E-05 M) | Residual activity (MAP3K9; 1.0E-06 M) | Residual activity (TYRO3; 1.0E-05 M) | Residual activity (TYRO3; 1.0E-06 M) | Residual activity (VRK1; 1.0E-05 M) | Residual activity (VRK1; 1.0E-06 M) | Residual activity (WNK3; 1.0E-05 M) | Residual activity (WNK3; 1.0E-06 M) | inhibition at 1 µM (p38alpha; 1 µM, read-out: inhibition of p38α) | inhibition at 10 µM (p38alpha; 10 µM, read-out: inhibition of p38α) | Residual activity (p38alpha; 1.0E-05 M) | Residual activity (p38alpha; 1.0E-06 M) |
| --- | --- | --- | --- | --- | --- | --- | --- | --- | --- | --- | --- | --- | --- | --- | --- | --- | --- | --- |
| O=C(Nc1ccc(F)c(Nc2ccc3c(c2)CCCCC3=O)c1)c1cccc(F)c1 [Compound 109] | 98 % of control | 99 % of control | 90 % of control | 93 % of control | 92 % of control | 98 % of control | 103 % of control | 89 % of control | 92 % of control | 104 % of control | 130 % of control | 100 % of control | 104 % of control | 93 % of control | ≥ 50% | ≥ 50% | 4 % of control | 17 % of control |
| O=C(Cc1ccccc1)Nc1ccc(F)c(Nc2ccc3c(c2)CCCCC3=O)c1 [Compound 100] | 101 % of control | 112 % of control | 91 % of control | 96 % of control | 91 % of control | 89 % of control | 96 % of control | 102 % of control | 77 % of control | 96 % of control | 103 % of control | 102 % of control | 109 % of control | 107 % of control |  |  | 73 % of control | 78 % of control |
